Data on 1 molecule can be found in patent US20140038953A1, “COMPOSITIONS AND METHODS FOR CARDIOVASCULAR DISEASE” (THE GENERAL HOSPITAL CORPORATION, priority 2011, published 2014).

The subject of one assay is LDLR−/− mice. Put plainly: Atheroma burden / lesion formation in LDLR−/− mice (Oil Red O, histology). Type of assay: in vivo. Conditions: for lipid accumulation / atheroma burden (Oil Red O): high fat diet 20 weeks, 2.5 mg/kg ip daily, vs vehicle, 2.5 mg/kg. The protocol:
Aortas were either immediately embedded and cryopreserved using optimal cutting-temperature medium (Sakura Tissue-Tek, Zoeterwoude, The Netherlands) or fixed in paraformaldehyde and embedded in parafin. The presence of calcification was determined by staining tissue sections with Alizarin red or Von Kossa. Lipid accumulation in tissue sections was visualized by staining with Oil Red O. Liver sections were prepared from paraformaldehyde-fixed tissue and stained with hematoxylin and eosin.
To confirm that BMP signaling has a direct impact on atherogenesis, the aortae explanted from the BMP inhibitor positive control compound-treated and vehicle-treated LDLr−/− mice after 20 weeks were subjected to Oil Red 0 staining to mark lipid-rich plaques.
LDLr−/− mice were started on a hypercholesterolemic diet at 8 weeks, and treated with either vehicle (saline) or a BMP inhibitor positive control compound (compound 13, 2.5 mg/kg/d intraperitoneally) for an additional 8 weeks. Aortae were harvested and fixed, and then stained with antibodies sensitive for the BMP effector molecule, phosphorylated-SMAD1/5/8, and counterstained with DAPI nuclear stain. Within 6-8 weeks of being subjected to a high fat diet, LDR−/− mice developed fatty lesions in the intima of the aortic root, based on traditional histochemical staining techniques (data not shown). […] Thus, the cellular components of lipid rich plaques, predominantly macrophage-derived foam cells, had evidence of intense activation of the BMP signaling pathway. In contrast, the lipid plaques found in the BMP inhibitor positive control compound-treated mice, which were diminished in size and extent as compared to those in vehicle-treated mice, had also diminished intensity of staining for the phosphorylated form of SMAD1/5/8 (data not shown). Thus, hypercholesterolemic mice had evidence of intense BMP signaling pathway activation in the cellular components of atheromatous lesions, and treatment of hypercholesterolemic mice with the BMP inhibitor positive control compound diminished the activation of the BMP signaling pathway in these lesions.
LDLR−/− deficient mice were intiated on an atherogenic diet (Paigen) at 8 weeks of age, and administered either vehicle, a BMP inhibitor positive control compound (compound 13, 2.5 mg/kg IP daily) or ALK3-Fc (2 mg/kg IP every other day). Each treatment group consisted of a total of 10 mice. After 4 weeks of atherogenic diet and drug or vehicle treatment, the animals were sacrificed. The frontal plane sections of the aortic arch were dissected out and stained for macrophage marker (MAC2) and counterstained with DAPI.
LDLR−/− deficient mice were initiated on an atherogenic diet (Paigen) at 8 weeks of age, and administered either vehicle, a BMP inhibitor positive control compound (compound 13, 2.5 mg/kg IP daily) or ALK3-Fc ([…] IP every other day). After 6 weeks of atherogenic diet and treatment, the animals were sacrificed. The frontal plane sections of the aortic arch were dissected out and stained for phosphorylated SMAD1/5/8 and counterstained with DAPI.

The test system of assay [1] is human aortic endothelial cells. The assay can be described thus: Reactive oxygen species in human aortic endothelial cells. Type of assay: cell-based. Conditions: HAECs, compound 13 100 nM, ALK3-Fc 500 ng/mL. As for the experimental part: Cells plated in a 96-well format were pre-treated with compound 13, ALK3-Fc, or vehicle for 30 min followed by treatment with oxidized LDL, BMP2, or vehicle for 20 hours after starvation for six hours. H2O2 production with chloromethyl 2′,7′-dichlorodihydrofluorescein diacetate (DCF, 2 μM) and NADPH oxidase activity with lucigenin were measured as previously described. (Ichinose, F., et al. Cardiomyocyte-specific overexpression of nitric oxide synthase 3 prevents myocardial dysfunction in murine models of septic shock. Circ Res 100, 130-139 (2007); Sorescu, G. P., et al. Bone morphogenic protein 4 produced in endothelial cells by oscillatory shear stress induces monocyte adhesion by stimulating reactive oxygen species production from a nox1-based NADPH oxidase. Circ Res 95, 773-779 (2004); and Abid, M. R., Spokes, K. C., Shih, S. C. & Aird, W. C. NADPH oxidase activity selectively modulates vascular endothelial growth factor signaling pathways. J Biol Chem 282, 35373-35385 (2007).)
Hepatoma G2 (HepG2) cells and human aortic endothelial cells (HAECs) were purchased from the American type culture collection (Manassas, Va.). HepG2 cells were maintained in Eagle's Minimum Essential Medium (EMEM) supplemented with 10% fetal bovine serum, 100 units/ml of penicillin, 0.1 mg/ml of streptomycin and glutamine. HAECs were cultured in endothelial cell basal medium (EBM 2) supplemented with the EBM2 bullet kit (Lonza, Basel, Switzerland). For experiments, cells were seeded into 6 or 12-well plates (BD Falcon, Franklin Lakes, N.J.) at a concentration of 0.5×10^6 cells per 5 mL of media. HAECs were maintained in EBM 2 with 0.1% FBS without additional growth factors for all experiments. HepG2 cells were grown to 70% confluence before they were incubated in EMEM enriched with 0.1% FBS. ApoB-100 measurements were performed in supernatants from HepG2 that had been incubated in EMEM containing 0.5% bovine serum albumin using a commercially available Human ApoB-100 ELISA kit (Mabtech AB, Nacka Strand, Sweden). […]

SMILES strings stand for the structures. “Also recorded” adds a separate entry of the source.

For the molecule `c1ccc2c(-c3cnn4cc(-c5ccc(N6CCNCC6)cc5)cnc34)ccnc2c1` [Compound 13, 4-[6-(4-piperazin-1-ylphenyl)pyrazolo[1,5-a]pyrimidin-3-yl]quinoline], in the assay on LDLR−/− mice (LDLR−/− mice, atherogenic diet and treatment 4 weeks, compound 13 2.5 mg/kg IP daily, ALK3-Fc 2 mg/kg IP every other day), the “lesion formation in aortic arch” value is listed as “decreased lesion formation overall”. Also, the “lesion formation / atherogenesis” value in the assay with LDLR−/− mice (LDLR−/− mice, atherogenic diet and treatment 6 weeks) was “decreased lesion formation overall”. The “lipid accumulation / atheroma burden (Oil Red O)” value in the assay on LDLR−/− mice (LDLR−/− mice) is “Atheroma burden was reduced; also recorded: marked reduction”; in the assay on LDLR−/− mice (LDLR−/− mice, listed as BMP inhibitor positive control compound), “consistently more severe in vehicle-treated”. Moreover, the intimal atheroma formation result in the assay with LDLR−/− mice (LDLr−/− mice, hypercholesterolemic diet and treatment 8 weeks, 2.5 mg/kg/d ip) is recorded as “reduced intimal atheroma formation”. In addition, the “BMP2-induced generation of reactive oxygen species (DCF fluorescence)” value in assay [1] (BMP2 20 ng/mL) was “compound 13- and ALK3-Fc-sensitive manner”. Besides, the “oxLDL-induced generation of reactive oxygen species (DCF fluorescence)” value in assay [1] (oxLDL 80 μg/mL) is “could inhibit oxLDL-induced ROS production”. For the same molecule, in assay [1], the “oxLDL-induced generation of reactive oxygen species (lucigenin fluorescence)” value is listed as “could be blocked”.
